Measurements: PMC12362587, “Untargeted Diversity-Oriented Synthesis for the Discovery of New Antitumor Agents: An Integrated Approach of Inverse Virtual Screening, Bioinformatics, and Omics for Target Deconvolution” (Journal of Medicinal Chemistry, 2025)

Legend:
A375 = test: MTT cell viability assay; format: cell-based; conditions: Homo sapiens, A-375, 24 h, compounds 0.01–40 μM, read-out: In Vitro Cytotoxicity, EC50 ± SD, A375
Source text: (§1) Initially, we phenotypically screened the synthesized compounds over a panel of tumor cell lines composed of HEPG2, A375, SHSY5Y, MCF7, and A549 derived from liver tumor, melanoma, neuroblastoma, breast cancer, and lung adenocarcinoma, respectively. We also considered the HaCaT cell line, coming from keratinocytes, as a healthy control line. As reference, cytotoxic chemotherapeutic agent 5-fluorouracil (5-FU) has been used. The results obtained performing the MTT (3-(4,5-dimethylthiazolyl-2)-2,5-diphenyltetrazolium bromide) assay are summarized in Table .
(§2) The human neuroblastoma SHSY5Y, melanoma A375, human breast cancer MCF7, nonsmall lung cancer A549, and human epidermal keratinocyte HaCaT cell lines were obtained from ATCC and were grown in Dulbecco’s Modified Eagle Medium (DMEM) supplemented with 10% (v/v) FBS, 2 mM L-glutamine, 100 U/mL penicillin, and 0.1 mg/mL streptomycin.
(§3) Cell viability was established by measuring mitochondrial metabolic activity with MTT. In brief, HEPG2 (1 × 10^4 cells/well), A375 (2 × 10^3 cells/well), HaCaT (3 × 10^3 cells/well), A549 (3 × 10^3 cells/well), SHSY5Y (2 × 10^4 cells/well), and MCF 7 (5 × 10^3 cells/well) were plated into 96-well plates for 24 h, then the compounds (0.01–40 μM) were added. After 24h, cells were replaced with a fresh medium containing 0.5 mg/mL MTT. Cells were incubated 1–3 h at 37 °C, then the medium was discarded, and formazan blue crystals in the cells were dissolved in 100 μL per well of a solution containing isopropanol/HCl 0.1 M. The absorbance was measured at 570 nm using a microplate reader (Multiskan Go, Thermo Scientific, Waltham, MA, USA). Cell viability was expressed as a percentage relative to the untreated cells cultured in medium with 0.1% DMSO and set to 100%, whereas 10% DMSO was used as positive control and set to 0% of viability. The EC50 values were calculated using GraphPad Prism 8.0 software by nonlinear regression of dose–response inhibition.

A549 = test: MTT cell viability assay; format: cell-based; conditions: Homo sapiens, 24 h, compounds 0.01–40 μM, read-out: In Vitro Cytotoxicity, EC50 ± SD, A549
Source text: as §1, §2, §3

MCF7 = test: MTT cell viability assay; format: cell-based; conditions: Homo sapiens, 24 h, compounds 0.01–40 μM, read-out: In Vitro Cytotoxicity, EC50 ± SD, MCF7
Source text: as §1, §2, §3

SHSY5Y = test: MTT cell viability assay; format: cell-based; conditions: Homo sapiens, SH-SY5Y, 24 h, compounds 0.01–40 μM, read-out: In Vitro Cytotoxicity, EC50 ± SD, SHSY5Y
Source text: as §1, §2, §3

[1] = biological target: T1, isocitrate dehydrogenase (IDH1 R132H) (Homo sapiens, UniProt O75874, R132H); test: IDH1 enzyme assay (R132H; BPS Bioscience); format: biochemical; conditions: top concentration 30 μM
T1 construct: purchased BPS Bioscience
Protocol: The assay was performed in a volume of 100 μL in a 96-well black plate. The IDH1 enzyme assay (R132H; BPS Bioscience, USA) was designed to measure IDH1 enzyme activity by measuring NADPH consumption. For activity measurement, the enzyme (final concentration, 2.5 ng per reaction), α-ketoglutarate (IDH1 substrate; final concentration, 4 mM), NADPH (final concentration, 500 μM), and compounds were incubated for 1 h at room temperature. The compounds were added at different concentrations in the reaction buffer, starting from a final concentration of 30 μM. Buffer with the same amount of DMSO (1%) was used as a negative control. After the incubation time, NADPH detection reagent was added for 5 min at room temperature. The fluorescence signals (excitation/emission, 544 nm/600 nm) were read using a PerkinElmer EnSpire multimode plate reader (PerkinElmer, Waltham, MA, USA). The experiments were performed in triplicate. The IC50 values were calculated using GraphPad Prism 8.0 software by nonlinear regression of dose–response inhibition.

[2] = biological target: T2, protein-tyrosine kinase 6 (BRK) (Homo sapiens, UniProt Q13882); test: BRK kinase assay (BPS Bioscience); format: biochemical; conditions: top concentration 30 μM, read-out: EC50 or IC50, protein-tyrosine kinase 6
T2 construct: purchased BPS Bioscience
Protocol: The assay was performed in a volume of 50 μL in a 96-well white plate. […] For activity measurement, the kinase (final concentration, 10 ng per reaction), PTK (Poly-Glu, Tyr 4:1; BRK substrate), ATP (final concentration, 500 μM) and compounds were incubated for 45 min at 30 °C. The compounds were added at different concentrations in the reaction buffer, starting from a final concentration of 30 μM. Buffer with the same amount of DMSO (1%) was used as a negative control. After the incubation time, ADP-Glo Kinase detection reagent was added for 45 min at room temperature. The generated luminescent signal was read in end point mode using a PerkinElmer AlphaScreen multimodal plate reader (PerkinElmer, Waltham, MA, USA). Experiments were performed in triplicate. IC50 values were calculated with GraphPad Prism 8.0 software by nonlinear dose–response inhibition regression.

A1 Human Adenosine GPCR = biological target: T3, A1 Human Adenosine GPCR (Homo sapiens, UniProt P30542); test: Binding Antagonist Radioligand LeadHunter Assay; conditions: Eurofins, read-out: EC50 or IC50, A1 Human Adenosine GPCR, antagonist radioligand
T3 construct: Eurofins (contract assay)
T3 sequence (P30542 1-326): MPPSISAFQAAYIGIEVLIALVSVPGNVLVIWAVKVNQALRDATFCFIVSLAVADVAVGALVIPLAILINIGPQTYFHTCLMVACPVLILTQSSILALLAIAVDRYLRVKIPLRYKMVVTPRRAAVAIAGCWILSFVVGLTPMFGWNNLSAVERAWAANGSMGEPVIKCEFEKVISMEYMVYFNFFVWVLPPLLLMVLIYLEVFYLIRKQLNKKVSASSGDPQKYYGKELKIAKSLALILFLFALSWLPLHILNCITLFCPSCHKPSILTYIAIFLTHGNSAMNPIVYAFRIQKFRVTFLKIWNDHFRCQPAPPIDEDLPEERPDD
Source text: (§4) For displacement assays on G-protein coupled receptor 55 (GPR55), Vasopressin V2 receptor (V2R), Adenosine A1 receptor (A1AR), Fibroblast growth factor receptor 1 (FGFR1), Vascular endothelial growth factor receptor 2 (VEGFR2), Platelet-derived growth factor receptor beta (PDGFRB), Vascular endothelial growth factor receptor 1 (VEGFR1), Thromboxane Synthase (TXS) and Phosphodiesterase 10A (PDE10A), we commissioned the Eurofins company which employed its specific experimental methods, accessible at the link: https://www.eurofins.com/.

[3] = biological target: T4, G-protein coupled receptor 55 (Homo sapiens, UniProt Q9Y2T6); test: Cell Based Agonist Arrestin LeadHunter Assay; conditions: Eurofins, read-out: EC50 or IC50, G-protein coupled receptor 55, agonist mode
T4 construct: Eurofins (contract assay)
Source text: as §4

T2 sequence (Q13882 whole entry): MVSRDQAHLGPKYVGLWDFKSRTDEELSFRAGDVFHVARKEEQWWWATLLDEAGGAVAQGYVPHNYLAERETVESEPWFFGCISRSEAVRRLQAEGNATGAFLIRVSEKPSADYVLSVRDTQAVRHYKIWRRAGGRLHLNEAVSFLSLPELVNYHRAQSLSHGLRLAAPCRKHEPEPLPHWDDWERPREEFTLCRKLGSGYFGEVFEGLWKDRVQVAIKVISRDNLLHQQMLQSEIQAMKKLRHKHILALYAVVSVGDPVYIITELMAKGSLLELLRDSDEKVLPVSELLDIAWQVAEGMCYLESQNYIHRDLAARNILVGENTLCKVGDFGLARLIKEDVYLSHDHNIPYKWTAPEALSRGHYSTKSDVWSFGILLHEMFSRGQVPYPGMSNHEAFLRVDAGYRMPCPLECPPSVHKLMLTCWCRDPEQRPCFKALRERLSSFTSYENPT
T1 sequence (O75874 whole entry R132H): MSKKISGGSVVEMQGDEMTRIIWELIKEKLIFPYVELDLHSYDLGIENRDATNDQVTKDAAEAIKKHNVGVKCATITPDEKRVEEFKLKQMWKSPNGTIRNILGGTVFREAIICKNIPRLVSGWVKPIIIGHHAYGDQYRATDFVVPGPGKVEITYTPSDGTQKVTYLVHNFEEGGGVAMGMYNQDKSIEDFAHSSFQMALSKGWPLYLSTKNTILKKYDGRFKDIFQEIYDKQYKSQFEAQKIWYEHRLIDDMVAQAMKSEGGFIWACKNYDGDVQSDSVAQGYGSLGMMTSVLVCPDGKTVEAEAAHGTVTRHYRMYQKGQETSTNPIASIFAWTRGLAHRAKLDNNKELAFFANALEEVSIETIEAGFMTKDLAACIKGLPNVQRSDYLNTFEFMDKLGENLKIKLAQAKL
T4 sequence (Q9Y2T6 whole entry): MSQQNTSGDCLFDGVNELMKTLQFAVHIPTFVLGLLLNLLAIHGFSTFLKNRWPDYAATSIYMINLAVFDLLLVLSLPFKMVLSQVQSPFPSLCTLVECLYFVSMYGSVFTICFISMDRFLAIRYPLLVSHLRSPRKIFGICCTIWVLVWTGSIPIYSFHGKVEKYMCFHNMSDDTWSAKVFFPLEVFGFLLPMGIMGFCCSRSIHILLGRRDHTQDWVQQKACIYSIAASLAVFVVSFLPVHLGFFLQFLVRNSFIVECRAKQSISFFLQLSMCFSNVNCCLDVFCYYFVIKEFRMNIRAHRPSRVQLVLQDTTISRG

Row | IC50 ([1]; read-out: EC50 or IC50, isocitrate dehydrogenase) | IC50 [2] | IC50 (A1 Human Adenosine GPCR) | EC50 [3] | EC50 or IC50, isocitrate dehydrogenase [1] | SMILES | EC50 (A375) | EC50 (A549) | EC50 (MCF7) | EC50 (SHSY5Y)
1 | 14.9 ± 2.12 µM | 19 ± 3.04 µM | ≥ 30 µM | ≥ 30 µM | – | CC(C)C[C@H]1C(=O)N(Cc2ccc(C(F)(F)F)cc2)c2ccccc2C(=O)N1Cc1ccc(C(F)(F)F)cc1 [Compound 31, (S)-3-Isobutyl-1,4-bis(4-(trifluoromethyl)benzyl)-3,4-dihydro-1H-benzo[e][1,4]diazepine-2,5-dione] | 0.65 ± 0.4 µM | > 40 µM | 17.3 ± 2.38 µM | > 40 µM
2 | – | 29.2 ± 4.53 µM | ≥ 30 µM | ≥ 30 µM | not soluble | CC(C)C[C@@H](C(=O)OCc1ccccc1)N1Cc2ccccc2NC1=O [Compound 63, Benzyl (S)-4-Methyl-2-(2-oxo-1,4-dihydroquinazolin-3(2H)-yl)pentanoate] | 2.29 ± 1.12 µM | 36.4 ± 3.15 µM | 27.9 ± 2.44 µM | 23.2 ± 4.17 µM
